Test results taken from ChEMBL document CHEMBL6078674, “Genome Mining of the Marine-Derived Fungus Trichoderma erinaceum F1-1 Unearths Bergamotene-Type Sesquiterpenoids” (J Nat Prod, 2024).

Key:
RKO = experiment: Cytotoxicity against human RKO cells; assay type: functional, cell-based
Staphylococcus aureus = experiment: Antibacterial activity against methicillin-resistant Staphylococcus aureus; assay type: functional, organism-based
RAW264.7 = experiment: Antiinflammatory activity in mouse RAW264.7 cells; assay type: functional, cell-based
A549 = experiment: Cytotoxicity against human A549 cells; assay type: functional, cell-based

Measured: IC50

CC(C)=CCC[C@]1(C)[C@@H]2C[C@H]1C(C)=C[C@H]2O[C@H]1O[C@H](CO)[C@@H](O)[C@H](O)[C@H]1O
> 50 µM: all assays above

C/C(=C\CC[C@]1(C)[C@H]2CC(=O)[C@@H](C)[C@@H]1C2)CO
> 50 µM: all assays above

C/C(=C\CC[C@]1(C)[C@H]2CC(=O)[C@](C)(O)[C@@H]1C2)CO
> 50 µM: all assays above

CC(=O)[C@@H]1C[C@H](CC(=O)O)[C@@]1(C)CCC=C(C)C
> 50 µM: all assays above

CC(C)=CCC[C@]1(C)[C@@H]2C[C@H]1[C@@](C)(O)C(=O)[C@H]2O
> 50 µM: all assays above

CC(C)=CCC[C@]1(C)[C@@H]2C[C@H]1[C@@](C)(O)C(=O)C2=O
> 50 µM: all assays above

CC(C)=CCC[C@]1(C)[C@H]2CC(=O)[C@](C)(O[C@H]3O[C@H](CO)[C@@H](O)[C@H](O)[C@H]3O)[C@@H]1C2
> 50 µM: all assays above

C/C(=C\CC[C@]1(C)[C@H]2CC(=O)[C@](C)(O)[C@@H]1C2)C(=O)O
> 50 µM: all assays above
